Test results reported in patent EP4309652A1, “COMPOSITION FOR USE IN THE PREVENTION AND/OR TREATMENT OF DISEASES MEDIATED BY TLR4, IL1R, COX1/2 AND/OR RBP4” (Servizo Galego de Saúde (SERGAS), priority 2022, dated 2024).
Entries after “also recorded” stand apart in the source; their conditions may differ.

How the values were obtained:
IL1R [1] = assay: RT-PCR, IL1β-induced mRNA expression of LCN2, IL6 and NOS2 in ATDC5 cells; format: cell-based, murine; details: IL1β (0,5 ng/ml), 24h
Experimental: (§1) ATDC-5 cells were seeded in 12-well plates. Cells were seeded in a monolayer. After adhesion and incubation overnight in serum-free conditions (starvation), ATDC5 cells were stimulated for 24 h with LPS [100 ng/ml] or IL-1β [0,5 ng/ml] in the presence or absence of the compounds of the invention [10-100 µM].
(§2) RNA was extracted using E.Z.N.A solation reagent (Omega) according to manufacturer's protocol. Relative quantitation was performed using the ΔΔC Comparative Method and the MxPro software (Stratagene, CA, USA) as the ratio of each gene to the expression of the housekeeping gene. Data are shown as mean ± S.E.M (error bars) of at least three independent experiments and represented as fold-change vs. controls.

ATDC5 cells = assay: Nitrite assay (Griess reaction), NO production; format: cell-based, murine; details: LPS (100 ng/ml) or IL1B (0,5 ng/ml), 24h
Experimental: ATDC-5 cells were seeded in 12-well plates. Cells were seeded in a monolayer. After adhesion and incubation overnight in serum-free conditions (starvation), ATDC5 cells were stimulated for 24 h with LPS [100 ng/ml] or IL-1β [0,5 ng/ml] in the presence or absence of the compounds of the invention [10-100 µM]. As described above, 1×10^5 ATDC5 cells were seeded and treated for 24 h. Nitrite accumulation was determined in the culture medium using the Griess reaction. As previously described, after diazonium salt was dissolved, absorbance was measured at 550 nm in a microplate reader.

RBP4 = RBP4 mRNA expression in chondrocytes; format: cell-based; details: basal or inflammatory conditions (LPS or IL1β), 50 and 100 µM of PJ
Experimental: as §2

TLR4 [2] = assay: RT-PCR, LPS-induced mRNA expression of LCN2, IL6 and NOS2 in ATDC5 cells; format: cell-based, murine; details: LPS (100 ng/ml), 24h
Experimental: as §1, §2

TLR4 [3] = assay: Western blot, NOS2 protein expression in LPS-stimulated ATDC5 cells; format: cell-based, murine; details: LPS (100 ng/ml), 24h
Experimental: as §1
(§3) Whole-cell protein extraction was performed using lysis buffer (RIPA Buffer). Immunoblots were incubated with the appropriated antibodies [INOS (rabbit polyclonal antibody) diluted 1:1000 (Thermo Fisher Scientific, MA, USA), IG (anti-rabbit antibody) diluted 1:5000 (Jackson ImmunoResearch Laboratories Inc., USA), b-actin (mouse polyclonal antibody) (Thermo Fisher Scientific, MA, USA) diluted 1:6500 and IG (anti-mouse antibody) diluted 1:10000] (Jackson ImmunoResearch Laboratories Inc., USA).
(§4) Then, all immunoblots were visualized using an Immobilon Western kit (Millipore, MA, USA). Blots densitometries were generated using a ChemiDoc MP Imaging System and analysed using Image J software (National Institutes of Health, Bethesda, MD, USA).

[4] = test system: primary human osteoarthritis chondrocytes and osteoblasts; assay: RT-PCR, inflammatory and catabolic marker genes in TLR4- and IL1R-activated primary cells; format: cell-based; details: 50 µM, 24h, LPS (100 ng/ml) or IL1β (0,5 ng/ml)
Experimental: as §2
According to the results obtained in ATDC5 cells, we selected the concentration 50 µM and co-treated the primary cells with inflammatory stimuli for 24h at the same concentrations [LPS (100 ng/ml), and IL1β (0,5 ng/ml)].

IL1R [5] = assay: Western blot, NOS2 protein expression in IL1β-stimulated ATDC5 cells; format: cell-based, murine; details: IL1β (0,5 ng/ml), 24h
Experimental: as §1, §3, §4

CC(=O)OC(/C=C\C1CC=CC(=O)O1)CC(OC(C)=O)C(C)OC(C)=O (stereo not drawn) [Hyptolide] was tested, and the “concentration of inhibitory activity on IL1β-induced mRNA expression” value (“concentration of inhibitory activity” for short) (IL1R [1]) was 100 µM.

COc1ccc2c(c1)c(CC(=O)O)c(C)n2C(=O)c1ccc(Cl)cc1 [Indomethacin, reference compound] was tested, and the “NO production induced by LPS and IL1β” value (ATDC5 cells) was “did not suppress; also recorded: did not significantly inhibit”.

CC(=O)OC(/C=C\C1OC(=O)C=CC1OC(C)=O)CC(OC(C)=O)C(C)OC(C)=O (stereo not drawn) [Pectinolide E] was tested, and the “concentration of inhibitory activity” value (IL1R [1]) was 50 µM.

With CC(=O)OC(/C=C\C1OC(=O)C=CC1O)CC(OC(C)=O)C(C)OC(C)=O (stereo not drawn) [Pectinolide J] the “RBP4 mRNA expression” value (RBP4) was “downregulates”, the “LPS-induced mRNA expression of LCN2, IL6 and NOS2” value (TLR4 [2]) was “highest anti-inflammatory activity” and the “IL1β-induced expression of LCN2, IL6 and NOS2” value (IL1R [1]) was “maximum inhibitory activity”. For the same molecule, the “concentration of inhibitory activity” value (IL1R [1]) was 10 µM, the “NOS2 protein expression (250 kDa dimer), LPS-induced” value (TLR4 [3]) was “highest reduction of NOS2 expression” and the “NO production induced by LPS and IL1β” value (ATDC5 cells) was “maximum inhibitory activity”. The “concentration of maximum inhibitory activity on induced NO production” value (ATDC5 cells) was 10 to 25 µM, the “inflammatory and catabolic marker genes (LCN2, NOS2, IL6, MMP3) induced by the inflammatory stimuli” value [4] was “maximum anti-inflammatory activity” and the “NOS2 protein expression (250 kDa dimer), IL1β-induced” value (IL1R [5]) was “highest reduction of NOS2 expression”.
